Key:
[1] = Mineral-binding ability by retention time on hydroxyapatite HPLC column; conditions: pH = 6.8, 2 mL/min
Protocol: B. […] The flow rate was 2 mL min^−1. […] Nucleoside mono-, di-, and triphosphates were recorded at a wavelength of 260 nm and zoledronate at a wavelength of 218 nm. The concentration of the eluted compounds was 0.3 mmol L^−1.

[2] = Binding of bisphosphonate conjugates on hydroxyapatite powder (UV absorbency of supernatant); conditions: pH 7.0
Protocol: A. To estimate the binding of BC on hydroxyapatite (mineral component of a bone) UV spectra of BC in buffer pH 7 were recorded before and after treatment with hydroxyapatite. To this end 10 μl of hydroxyapatite suspension in water was added to 1 ml of ˜10^−4 M solution of a BC in 0.1M Tris-HCl buffer, pH 7.0, 0.15 M NaCl and the mixture was intensively shaken for 10 minutes, and centrifuged for 5 minutes at 10,000 rpm in a microcentrifuge. The supernatant was separated and an absorbency spectrum of the supernatant was recorded.

[3] = 1500 mM sodium phosphate buffer

CC(O)(P(=O)(O)O)P(=O)(O)OP(=O)(O)OCC1OC(n2cc(F)c(=O)[nH]c2=O)C(O)C1O (stereo not drawn) [VI, anhydride of 5-Fluoro-uridine-5′-monophosphoric acid and 1-Hydroxyethylidene-1,1-diphosphonic acid]
Retention time on hydroxyapatite column ([1]; 500 mM sodium phosphate buffer): 17.72 min | Retention time on hydroxyapatite column [1, 3]: 6.00 min | % of bound compound [2]: 69.66% | % of nonbound compound [2]: 30.34%

O=c1ccn([C@@H]2O[C@H](COP(=O)(O)O)[C@@H](O)[C@H]2O)c(=O)[nH]1 [UMP]
Retention time on hydroxyapatite column ([1]; 500 mM sodium phosphate buffer): 4.25 min | Retention time on hydroxyapatite column [1, 3]: 3.42 min

O=c1ccn([C@@H]2O[C@H](COP(=O)(O)OP(=O)(O)OP(=O)(O)O)[C@@H](O)[C@H]2O)c(=O)[nH]1 [UTP]
Retention time on hydroxyapatite column [1, 3]: 3.5 min

O=P(O)(O)C(O)(Cn1ccnc1)P(=O)(O)O [Zoledronate, zoledronate]
Retention time on hydroxyapatite column [1, 3]: 17.35 min

O=c1[nH]c(=O)n(COCCOP(=O)(O)OP(=O)(O)CP(=O)(O)O)cc1F [II, Anhydride of 1-(2′-hydroxyethoxymethyl)-5-fluorouracil-2′-phosphate and methylenediphosphonic acid]
% of bound compound [2]: 87.26% | % of nonbound compound [2]: 12.74%

O=c1ccn([C@@H]2O[C@H](COP(=O)(O)OP(=O)(O)O)[C@@H](O)[C@H]2O)c(=O)[nH]1 [UDP]
Retention time on hydroxyapatite column ([1]; 500 mM sodium phosphate buffer): 5.75 min | Retention time on hydroxyapatite column [1, 3]: 3.47 min

— patent US9216204B2, “Bone targeted therapeutics and methods of making and using the same” (MBC Pharma, Inc., priority 1998, dated 2015)
